Measurements reported in patent US9145398B2, “Methods of treating CXCR4-expressing cancers” (University of Louisville Research Foundation, Inc., priority 2010, dated 2015).
Entries after “also recorded” stand apart in the source; their conditions may differ.

Assays:
TC-1 tumor cells = type: in vivo; conditions: 5 mg/kg i.p. every day for 21 days; for TC-1 metastatic tumor incidence and burden in lungs: versus PBS or Vehicle controls
Description: Development of Animal Model for CXCR4 Dependent Cancer Metastasis in Lungs: To establish a CXCR4 dependent lung tumor metastasis model, we first screened several cancer cell lines that are known to metastasize to lungs in mice models to determine which cancer cell lines endogenously express CXCR4 receptor. The mice cell lines screened were Lewis lung carcinoma, B16F10 melanoma, and TC-1 cervical carcinoma. Mice cell lines were screened using flow cytometry-based surface receptor staining using a fluorochrome labeled antibody to mouse CXCR4 receptor. […] The TC-1 cell line was generated by transfection of murine lung squamous epithelial cells by Human pappillomavirus (HPV) oncogenes E6, E7, and activated Ras.
5 mg/kg body weight of AMD3100, I-28, I-36, or I-38 were also injected at the same dose intra-peritoneal (i.p.) every day for 21 days starting from the day before the tumor cell injection. Mice were sacrificed and lungs were perfused and collected on day 21 post tumor challenge. Lungs were stored in formalin for 16 hrs and then transferred into 70% ethanol until the lung lobes became lucid. All five lung lobes were separated. Tumors were counted using a magnifying glass or a microscope. Tumor sizes were measured using a digital caliper. The total number of tumors counted in all five lung lobes of an individual mouse is reported as the tumor incidence. Mean tumor sizes were added together to calculate cumulative tumor size, which is reported as the tumor burden for each mouse.

CXCR4 = target: T1, CXCR4 (Homo sapiens, UniProt P61073); assay: CXCL12-mediated chemotaxis of THP-1 cells; type: cell-based; conditions: 10 μM compound, CXCL12 500 ng/ml
T1 construct: endogenous in cells; host or cells: THP-1 cells (ATCC TIB-202)
T1 sequence (P61073 whole entry): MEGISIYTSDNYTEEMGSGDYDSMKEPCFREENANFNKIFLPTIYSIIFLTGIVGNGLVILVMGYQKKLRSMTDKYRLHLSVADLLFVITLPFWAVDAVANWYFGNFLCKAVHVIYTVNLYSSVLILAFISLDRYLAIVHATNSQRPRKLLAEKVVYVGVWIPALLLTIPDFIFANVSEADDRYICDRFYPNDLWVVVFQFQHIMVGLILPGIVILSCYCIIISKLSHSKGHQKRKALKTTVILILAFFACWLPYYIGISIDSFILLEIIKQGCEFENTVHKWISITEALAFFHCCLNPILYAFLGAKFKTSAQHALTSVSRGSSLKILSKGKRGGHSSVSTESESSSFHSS
Protocol: Data are presented as a percentage of THP-1 cells (obtainable from ATCC accession number TIB-202) migrating toward a CXCL12 gradient of 500 ng/ml, normalized to the control, which was the CXCL12 only treatment. All assays were performed a minimum of four times with inhibitor concentration of 10 μM, except for I-61 and I-62 which used an inhibitor concentration of 1 μM. Error bars represent the standard deviation of the mean.
(§1) Chemotaxis assays were performed with selected compounds at a concentration of 10 μM. Chemokines signaling via CXCR4 (CXCL12 at concentration of 500 ng/ml) and CCR5 (RANTES at concentration of 300 ng/ml) were utilized to assess the receptor specificity of each compound. Each pair of columns for a lane corresponds to two separate representative experiments. The negative control samples (lanes 2 and 7) correspond to the chemotaxis without CXCL12 or RANTES. The CXCL12 and RANTES lanes are positive controls corresponding to CXCL12 alone (lanes 1 and 6) or RANTES alone (lanes 4 and 9) mediated chemotaxis. The experimental samples (lanes 3, 5, 8, and 10) correspond to CXCL12- or RANTES-mediated chemotaxis when the cells are co-incubated with I-38 or I-46.

hCXCR4-GFP [1] = target: T2, hCXCR4-GFP (Homo sapiens, UniProt P61073); assay: Chemotaxis assay, hCXCR4-GFP expressing 300.19 cells, CXCL12; type: cell-based; conditions: for IC50: hCXCR4-GFP 300.19 cells, CXCL12
T2 sequence (P61073 whole entry): as above
Protocol: (§2) Cells were suspended in chemotaxis buffer (RPMI 1640, 1% fetal bovine serum, 1 mM HEPES) at a concentration of 1×10^7 cells per ml. Cell chemotaxis was determined by examining the migration of the 300.19 cells in response to administration of 50 μM test compound plus an optimized concentration of CXCL12 using a chemotaxis assay that was previously described in Basu et al. (Basu et al., Critical role for polar residues in coupling leukotriene B4 binding to signal transduction in BLT1, J. Biol. Chem. (2007) Vol. 282, pp. 10005-17). 100 μL of 300.19 cells from the above cell suspension were placed in the upper chamber of a Transwell support (Corning Costar, Cambridge, Mass.) and were separated by a 5 micron filter from a bottom chamber containing 50 μM test compound plus the optimized concentration of CXCL12 in a final bottom chamber volume of 600 μl. After 3 h of incubation at 37° C. in 5% CO2, the upper chamber was removed and cells in the lower chamber were counted in a Bürker chamber. Cell counts for all samples were normalized to a CXCL12 plus DMSO control and results are reported using this normalized measure, referred to herein as the chemotaxis index. In some instances, the IC50 concentration (i.e., the concentration at which the chemotaxis index is reduced to 50% of the chemotaxis index of the CXCL12 plus DMSO control) of the test compounds was determined. All assays were performed a minimum of four times; error bars represent the standard deviation of the mean.

300.19 cells = assay: Cytotoxicity assay, propidium iodide based flow cytometry; type: cell-based; conditions: for cytotoxicity, percentage of cells staining positive for PI: 50 μM test compound
Protocol: Cytotoxicity Assay Method: To determine the potential for test compound cytotoxicity to influence cell intracellular calcium mobilization and chemotaxis, cell cytotoxicity was assessed using propidium iodide (PI) based flow cytometry. Propidium iodine is impermeable to intact cell membranes and thus its lack of intercalation into DNA (which increases PI fluorescence) is a positive indicator of cell viability. Cytotoxicity values are presented as percentage of cells staining positive for PI. Lower values of fluorescence indicate less cytotoxicity. All assays were performed a minimum of four times; error bars represent the standard deviation of the mean.

[2] = Test for toxicity in mice; type: in vivo; conditions: i.p. 5 mg/kg, then 20 or 40 mg/kg two days later; observed over 3 weeks
Protocol: Test for Toxicity: Mice were treated by intra-peritoneal injections of three of compounds I-28, I-36, and I-38 at the first dose of 5 mg/kg of body weight, followed by a second injection of either 20 mg/kg of body weight or 40 mg/kg of body weight two days later.

BLT1 [3] = target: T3, BLT1 (Homo sapiens, UniProt Q15722); assay: Chemotaxis assay, cells expressing BLT1, LTB4; type: cell-based; conditions: 50 μM test compound, LTB4-induced
T3 sequence (Q15722 whole entry, species assumed): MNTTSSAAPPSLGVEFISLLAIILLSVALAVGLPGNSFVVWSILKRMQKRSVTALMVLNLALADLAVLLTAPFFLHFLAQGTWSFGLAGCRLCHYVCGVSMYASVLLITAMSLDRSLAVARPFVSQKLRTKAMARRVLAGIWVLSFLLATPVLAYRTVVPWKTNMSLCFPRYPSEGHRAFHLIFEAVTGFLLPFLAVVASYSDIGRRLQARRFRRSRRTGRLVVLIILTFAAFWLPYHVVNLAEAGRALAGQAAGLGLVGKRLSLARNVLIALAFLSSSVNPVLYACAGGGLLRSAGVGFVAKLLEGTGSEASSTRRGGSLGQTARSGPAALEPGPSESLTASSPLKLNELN
Protocol: as §2
To examine specificity of some of the compounds for CXCR4, their activity was tested against a non-family member class A G protein-coupled receptor, BLT1. […] I-38 and I-43 inhibited BLT1-mediated chemotaxis (0.23) and (0.045) to about the same extent as CXCR4-mediated chemotaxis (0.21) and (0.064), respectively.

hCXCR4-GFP [4] = target: T2, hCXCR4-GFP; assay: Intracellular calcium mobilization assay, hCXCR4-GFP expressing 300.19 cells, CXCL12; type: cell-based; parameters: IC50 of intracellular calcium mobilization, CXCR4; other: CXCL12-mediated; other: 50 μM test compound; normalized Δ fluorescence (CXCR4, intracellular calcium mobilization); other: 50 μM test compound, 60 seconds pretreatm; conditions: 50 μM test compound
Protocol: (§3) Intracellular Calcium Mobilization Assay Method: The intracellular calcium mobilization assay used 300.19 cells which stably expressed hCXCR4-GFP, as described previously in Pello et al. (2008). Cells were loaded with INDO-I and then pretreated with the 50 μM of the test compound for 60 seconds prior to stimulation of intracellular calcium mobilization with an optimized concentration of CXCL12. […] The value Δ florescence is the difference between (a) the fluorescence ratio from cells before exposure to CXCL12 at its optimized concentration and (b) the fluorescence ratio from cells following stimulation with the optimized concentration of CXCL12. Decreases in Δ florescence correspond to decreases in intracellular calcium mobilization, and therefore, decreased signaling. As CXCL12 concentration was optimized for each test compound, results are presented as normalized Δ florescence which is Δ fluorescence divided by the fluorescence ratio of optimized CXCL12-only stimulation. In some instances, the IC50 concentration (concentration at which intracellular calcium mobilization is reduced to 50% of the Δ fluorescence of the CXCL12 plus DMSO control) of the test compounds was determined. All assays were performed a minimum of four times; error bars represent the standard deviation of the mean.

CCR5 = target: T4, CCR5 (Homo sapiens, UniProt P51681); assay: RANTES-mediated chemotaxis of THP-1 cells; type: cell-based; conditions: 10 μM compound, RANTES 300 ng/ml
T4 construct: endogenous in cells; host or cells: THP-1 cells
T4 sequence (P51681 whole entry): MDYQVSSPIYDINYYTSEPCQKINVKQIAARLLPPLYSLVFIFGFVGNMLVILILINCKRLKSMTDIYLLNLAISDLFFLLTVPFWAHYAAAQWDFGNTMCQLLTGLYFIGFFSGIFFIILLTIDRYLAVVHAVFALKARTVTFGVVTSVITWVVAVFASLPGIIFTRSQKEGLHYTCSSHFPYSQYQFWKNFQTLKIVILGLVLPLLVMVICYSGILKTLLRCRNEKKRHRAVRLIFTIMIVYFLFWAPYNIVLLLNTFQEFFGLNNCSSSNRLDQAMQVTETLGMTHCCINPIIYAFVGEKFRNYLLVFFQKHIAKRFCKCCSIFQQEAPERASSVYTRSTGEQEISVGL
Protocol: as §1

hCXCR4-GFP [5] = assay: Chemotaxis assay, hCXCR4-GFP expressing 300.19 cells, CXCL12; type: cell-based, human; conditions: from chemotaxis indices at 50 μM
Protocol: as §2

HS27 cells = assay: MTT cell proliferation assay, HS27; type: cell-based, human; conditions: 4 days, normal fibroblast cell line
Protocol: (§4) To determine the potential for compounds to impact the proliferation of cells, cell growth was assessed capacity using the 3-(4,5-dimethylthiazol-2-yl)-2,5-diphenyltetrazolium bromide (MTT) assay. The effect of these compounds was determined for four cell lines: HS27, a “normal” fibroblast cell line; MCF7, an estrogen-dependant non-metastatic breast cancer cell line; MDA-MB-231, an estrogen-independent metastatic breast cancer cell line; and A549, a lung cancer cell line. Cells were left untreated, treated with 12.5 mM DMSO, or treated with varying concentrations of four compounds, (I-9, I-25, I-36, and I-37), then incubated for 4 days, before analysis. Absorbance at 490 nm represents proliferating cells. For samples using compounds, these values are normalized to untreated samples.

MCF7 cells = assay: MTT cell proliferation assay, MCF7; type: cell-based, human; conditions: Homo sapiens, MCF7, 96 h, 4 days
Protocol: as §4

A549 cells = assay: MTT cell proliferation assay, A549; type: cell-based, human; conditions: Homo sapiens, A549, 96 h, 4 days
Protocol: as §4

MDA-MB-231 cells = assay: MTT cell proliferation assay, MDA-MB-231; type: cell-based, human; conditions: Homo sapiens, MDA-MB-231, 96 h, 4 days
Protocol: as §4

BLT1 [6] = target: T3, BLT1; assay: Intracellular calcium mobilization assay, cells expressing BLT1, LTB4; type: cell-based; conditions: 50 μM test compound, LTB4
Protocol: as §3
At 50 μM test compound concentrations in BLT1-expressing cells, I-44 (0.040) and I-46 (0.017) inhibited intracellular calcium mobilization.

Compound | efficacy compared with AMD3100 (TC-1 tumor cells) | reduction of average tumor burden (TC-1 tumor cells) | TC-1 metastatic tumor incidence and burden in lungs (TC-1 tumor cells) | inhibition of CXCL12-mediated migration of THP-1 cells (CXCR4) | IC50 (hCXCR4-GFP [1]) | cytotoxicity, percentage of cells staining positive for PI (300.19 cells) | apparent toxicity (loss of body weight, signs of physiological distress) [2] | chemotaxis index (BLT1-mediated) (BLT1 [3]) | inhibition of intracellular calcium mobilization (in words) (hCXCR4-GFP [4]) | inhibition of RANTES-mediated migration of THP-1 cells (CCR5) | fold greater inhibition of CXCR4-mediated than BLT1-mediated chemotaxis (hCXCR4-GFP [5]) | chemotaxis index (CXCR4-mediated) (hCXCR4-GFP [1]; 50 μM test compound plus optimized CXCL12, normalized to CXCL12 plus DMSO control) | proliferation inhibition, HS27 (in words) (HS27 cells) | cytotoxicity in dose response below 50 μM (300.19 cells; 50 μM, 10 μM, 5 μM and 1 μM tested) | IC50 (MCF7 cells) | IC50 (A549 cells) | IC50 (MDA-MB-231 cells) | normalized Δ fluorescence (BLT1, intracellular calcium mobilization) (BLT1 [6]) | normalized Δ fluorescence (CXCR4, intracellular calcium mobilization) (hCXCR4-GFP [4]; 60 seconds pretreatment, optimized CXCL12 (AMD3100 concentration not given))
O=C(CO/N=C/c1ccccc1)N/N=C1\C(=O)N(CN(Cc2ccccc2)Cc2ccccc2)c2ccccc21 [Compound I-38, acetic acid, 2-[[(phenylmethylene)amino]oxy]-,2-[1-[[bis(phenylmethyl)amino]methyl]-1,2-dihydro-2-oxo-3H-indol-3-ylidene]hydrazide] | more effective than AMD3100 | more than 60% | reduced mice TC-1 metastatic tumor incidence and burden in lungs | specifically inhibit CXCR4 mediated migration | 5 µM | 7.93% | did not induce any apparent toxicity | 0.23 | does not significantly inhibit intracellular calcium mobilization; also recorded: little reduction of intracellular calcium mobilization | specifically inhibit CXCR4 mediated migration |  |  |  |  |  |  |  |  | 
CCn1c2ccccc2c2ccc(Nc3nc4ccccc4nc3NS(=O)(=O)c3ccc(C)cc3)cc21 [Compound I-36, N-[3-(9-ethylcarbazol-2-yl)aminoquinoxalin-2-yl]-4-methyl-benzenesulfonamide] |  |  | reduced mice TC-1 metastatic tumor incidence and burden in lungs |  | 1 µM | 21.0% | did not induce any apparent toxicity | 0.44 |  |  | 3.5 fold | 0.12 | marginal proliferation inhibition at higher concentrations | no cytotoxicity beyond the initial 50 μM screening concentration | 12.5 µM | 22.5 µM | 30 µM |  | 
O=C(Nc1ccc2ccc3ccc(NC(=O)c4ccccc4)nc3c2n1)c1ccccc1 [Compound I-46, N,N′-1,10-phenanthroline-2,9-diylbis-benzamide] |  |  |  | inhibit migration to both chemokines |  |  |  |  |  | inhibit migration to both chemokines |  |  |  |  |  |  |  | 0.017 | 0.067
